From patent publication US9029414B2, “Triterpenoid compounds and methods of use thereof” (Biotechnology Research Corporation, priority 2008, dated 2015)

How the values were obtained:
[1] = tested on: LPS-induced TNF-α in serum; assay: Murine model of lipopolysaccharide-induced cytokine production; format: in vivo, Swiss-Webster mice
Procedure: This is a contract research performed by Washington Biotechnology Inc., Columbia, Md., protocol 1077. Swiss-Webster mice (female, Harlan Sprague-Dawley, 5-6 weeks) were weighed and dosed orally with 10 ml/kg water, prednisolone at 10 mg/kg, or DA021 at 30 mg/kg or 100 mg/kg. Thirty minutes after oral dosing, lipopolysaccharides (LPS) at 2 mL/kg was injected. Two hours after LPS injection, the mice were anesthetized and exsanguinated into serum separator micro-container tubes. The blood was processed to serum. The serum samples were assayed for tumor necrosis factor-α (TNFα) concentration by ELISA (Pierce) according to the manufacturer's protocol.
Evaluation of the efficacy and potency of orally administered DA021 to inhibit the lipopolysaccharide (LPS)-induced release of tumor necrosis factor-α (TNF-α) in mice was carried out. LPS is a widely used endotoxin, isolated from the bacteria, E. coli in inducing acute inflammation in an organism. Prednisolone is a synthetic corticosteroid drug that is commonly used in inflammatory reactions. It is a broad range immunosuppressant. Based on FIG. 29, there was a marked increase in the amount of TNF-α in serum upon LPS treatment in mice.
Two hours after LPS injection, the serum was collected from the mice. The serum samples were assayed for tumor necrosis factor-α (TNFα) concentration by ELISA (Pierce) according to the manufacturer's protocol. N=10, significance was calculated versus LPS+vehicle using the Student's T-test, *=p≦0.05, #=p≦1×10^−4.

MC2 receptor = biological target: T1, MC2 receptor (Homo sapiens, UniProt Q01718); assay: Cellular receptor functional assay (cAMP), MC2; format: cell-based
T1 construct: expressed in transfected cells
T1 sequence (Q01718 whole entry): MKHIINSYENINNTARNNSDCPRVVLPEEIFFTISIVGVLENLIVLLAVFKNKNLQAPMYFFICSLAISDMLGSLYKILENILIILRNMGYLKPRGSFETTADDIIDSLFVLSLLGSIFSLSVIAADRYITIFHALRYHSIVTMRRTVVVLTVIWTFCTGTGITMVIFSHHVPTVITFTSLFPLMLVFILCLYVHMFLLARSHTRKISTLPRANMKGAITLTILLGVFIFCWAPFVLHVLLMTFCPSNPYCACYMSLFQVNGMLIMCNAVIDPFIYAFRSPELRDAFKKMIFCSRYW
T1 sequence (Q8TCY5 whole entry partner): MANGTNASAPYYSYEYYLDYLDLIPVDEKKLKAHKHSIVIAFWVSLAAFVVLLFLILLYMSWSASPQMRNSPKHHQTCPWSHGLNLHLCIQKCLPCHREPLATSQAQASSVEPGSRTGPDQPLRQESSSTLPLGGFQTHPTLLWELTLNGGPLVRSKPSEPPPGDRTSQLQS
Procedure: (§1) DA001 inhibits ligand binding to MC1 and MC4 receptors. To determine whether the inhibitory effect is due to agonist or antagonist activity, DA001 was evaluated at 6 or 8 concentrations in cellular assays assessing receptor function. Upon ligand binding, the MC1 or MC4 receptor is activated which leads to an increase in intracellular cyclic AMP. […] DA001 alone is unable to induce cAMP increase (blue square dots). […] DA001 was further evaluated with MC2 receptor functional assay. Upon ligand binding, the MC2 receptor is activated which leads to an increase in intracellular cyclic AMP.

kainate receptor = assay: Radioligand competition binding assay, kainate; conditions: 10 μM in duplicate
Procedure: DA001 was evaluated against 109 receptor binding assays and 17 enzyme assays, comprising of selective, central and peripheral therapeutically-relevant targets. Radioligand competition assays were conducted whereby DA001 was tested at one concentration (10 μM) in duplicate. […] It could compete with the radioligand [^125I-NDP-alpha-melanocyte-stimulating hormone (α-MSH)] binding for MC1 and MC4 but not MC3 and MC5 nor the related family, the melanin concentrating hormone receptors (MCH1 and MCH2).

human MC1 receptor = human MC1 receptor (Homo sapiens, UniProt Q01726); assay: Cellular receptor functional assay (cAMP), MC1; format: cell-based
Chain of human MC1 receptor (Q01726 whole entry): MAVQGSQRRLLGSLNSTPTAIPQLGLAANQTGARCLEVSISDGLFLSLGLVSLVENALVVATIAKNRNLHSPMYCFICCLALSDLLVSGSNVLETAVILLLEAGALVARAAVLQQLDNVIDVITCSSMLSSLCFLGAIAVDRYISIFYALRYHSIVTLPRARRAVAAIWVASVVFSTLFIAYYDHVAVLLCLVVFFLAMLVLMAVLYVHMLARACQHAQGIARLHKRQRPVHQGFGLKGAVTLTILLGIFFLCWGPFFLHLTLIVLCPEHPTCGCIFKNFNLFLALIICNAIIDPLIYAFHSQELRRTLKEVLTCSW
Procedure: as §1

human MC4 receptor = human MC4 receptor (Homo sapiens, UniProt P32245); assay: Cellular receptor functional assay (cAMP), MC4; format: cell-based; conditions: cells over-expressing MC4
Chain of human MC4 receptor (P32245 whole entry): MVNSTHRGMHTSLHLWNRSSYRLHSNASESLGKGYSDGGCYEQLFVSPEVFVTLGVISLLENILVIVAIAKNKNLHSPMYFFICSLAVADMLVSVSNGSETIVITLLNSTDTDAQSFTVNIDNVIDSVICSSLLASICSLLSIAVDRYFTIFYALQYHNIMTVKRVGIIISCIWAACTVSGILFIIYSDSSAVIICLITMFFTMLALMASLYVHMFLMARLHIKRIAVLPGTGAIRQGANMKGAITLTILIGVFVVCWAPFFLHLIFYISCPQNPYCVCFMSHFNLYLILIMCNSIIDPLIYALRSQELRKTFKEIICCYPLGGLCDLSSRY
Procedure: FIG. 1. […] DA001 alone is unable to induce cAMP increase (blue square dots).
as §1

[2] = tested on: lymphocyte infiltrates in spinal cord of EAE mice; assay: Hematoxylin and eosin staining of spinal cords of EAE mice; format: in vivo; conditions: DA001-treated vs vehicle-treated EAE mice
Procedure: On day 21, animals were anesthetized intraperitoneally with 4% (w/v) chloral hydrate (BDH) in 0.9% (w/v) saline (USB). Once the anesthetics has set it, the animals were then perfused transcardially (Gilson) with 50 mL of 37° C., 0.005% (w/v) heparinized (Sigma) saline (USB), followed by 80 mL of ice-cold, 4% (w/v) paraformaldehyde (Sigma) in Dulbecco's Phosphate Buffered Saline (GIBCO). The perfused spinal cords were then further fixed in 4% (w/v) paraformaldehyde (Sigma) overnight at 4° C. After overnight incubation, the samples were prepared in an automated tissue processor for dehydration, clearing and paraffin infiltration (Leica EG1150H) followed by paraffin embedding (Leica RM2255). After overnight incubation at room temperature, the blocks were sectioned at 6 μm thickness on microtome (Leica 1250) and laid on Histobond slides (Merienfeld). The slides were incubated at 60 C oven for 24 h before being stained. On the day of staining, the slides were rehydrated in a series of EtOH solutions. The rehydrated slides were then submerged in hematoxyline solution for 20 min at room temperature. The slides were differentiated in acidic solution before being fixed in a series of EtOH solutions then eosin at 20 min in room temperature. […]

Structure (SMILES)	inhibition of the LPS response (serum TNF-α) ([1]; 30 mg/kg orally 30 min before LPS)	inhibition of the LPS response (serum TNF-α) ([1]; 100 mg/kg orally 30 min before LPS)	Agonist effect, cAMP measurement (MC2 receptor; absence of ligand ACTH1-39, cells over-expressing MC2)	Antagonist effect, cAMP measurement (MC2 receptor; presence of ligand ACTH1-39, cells over-expressing MC2)	% inhibition of control specific binding (kainate receptor)	Kb (human MC1 receptor; antagonist effect at human MC1 receptor)	IC50 (human MC1 receptor; inhibition of cAMP increase by NDP-α-MSH, cells over-expressing MC1, read-out: IC50, antagonist effect)	agonist effect (cAMP increase by compound alone) (human MC4 receptor; compound alone)	IC50 (human MC4 receptor; inhibition of cAMP increase by NDP-α-MSH, read-out: IC50, antagonist effect)	lymphocytes surrounding axons / lymphocyte infiltration in spinal cord (H&E) [2]
C=C(C)[C@@H]1CC[C@]2(/C=N/O)CC[C@]3(C)C(CCC4[C@@]5(C)CCC(=O)[C@@](C)(CO)[C@@H]5CC[C@]43C)C12 (stereo partly shown) [DA021]	73%	77%	–	–	–	–	–	–	–	–
C=C(C)[C@@H]1CC[C@]2(C(=O)O)CC[C@]3(C)C(CC[C@@H]4[C@@]5(C)CC[C@H](O[C@@H]6OC[C@H](O)[C@H](O)[C@H]6O[C@@H]6O[C@@H](C)[C@H](O)[C@@H](O)[C@H]6O)[C@@](C)(CO)[C@@H]5CC[C@]43C)[C@@H]12 (stereo partly drawn) [DA001, 3-O-[α-L-rhamnopyranosyl-(1→2)-α-L-arabinopyranosyl]-3,23-dihydroxy-20(29)-lupen-28-oic acid]	–	–	0	−8	35%	5.3 µM	50 µM	did not induce an increase in cAMP	17 µM	dramatically reduced
